Literature values in patent US12551426B2, “Method for treating hair, comprising the application of a first agent (a) having a silane and a chromophoric compound, and a second agent (b) having a film-forming polymer” (Henkel AG & Co. KGaA, priority 2018, dated 2026).

Conditions: 25° C.

Compound	solubility in water (in words)	solubility in water
O=S(=O)([O-])c1ccc(N=Nc2c(O)ccc3ccccc23)cc1.[Na+] [Acid Orange 7, sodium salt of 4-[(2-hydroxy-1-naphthyl)azo]benzene sulphonate]	–	more than 7 g/L
Nc1cc(S(=O)(=O)[O-])cc2cc(S(=O)(=O)[O-])c(N=Nc3ccccc3)c(O)c12.[Na+].[Na+] [Acid Red 33, diantrium salt of 5-amino-4-hydroxy-3-(phenylazo)-naphthalene-2,7-disulphonate]	–	2.5 g/L
O=C([O-])c1c(Cl)c(Cl)c(Cl)c(Cl)c1-c1c2c(Br)cc(=O)c(Br)c-2oc2c(Br)c(O)cc(Br)c12.O=C([O-])c1c(Cl)c(Cl)c(Cl)c(Cl)c1-c1c2c(Br)cc(=O)c(Br)c-2oc2c(Br)c(O)cc(Br)c12.[Na+].[Na+] [Acid Red 92, disodium salt of 3,4,5,6-tetrachloro-2-(1,4,5,8-tetrabromo-6-hydroxy-3-oxoxanthen-9-yl)benzoic acid]	–	greater than 10 g/L
Acid Yellow 3	–	20 g/L
O=C([O-])C1=NN(c2ccc(S(=O)(=O)[O-])cc2)C(=O)C1N=Nc1ccc(S(=O)(=O)[O-])cc1.[Na+].[Na+].[Na+] (centres unmarked) [Acid Yellow 23, trisodium salt of 4,5-dihydro-5-oxo-1-(4-sulfophenyl)-4-((4-sulfophenyl)azo)-1H-pyrazole-3-carboxylic acid]	highly soluble in water	–
